Consider 1 substance from publication PMC6213970, “Identification of Enolase as the Target of 2-Aminothiazoles in Mycobacterium tuberculosis” (Frontiers in Microbiology, 2018).

The assay addresses T1, human α-enolase (Homo sapiens, UniProt P06733).
T1 construct: gene ENO1; commercial enzyme (Sigma)
Kind of assay: pyruvate kinase-luciferase coupled assay (luminescence). It is filed as biochemical. The conditions noted are these: 100 μM compound; 2-PG 0.2 mM (figure legend) or 0.5 mM (methods); 1 mM ADP, 10 mM MgSO4, 50 mM HEPES pH 7.0, 37°C, 1% DMSO.

T1 sequence (P06733 2-434): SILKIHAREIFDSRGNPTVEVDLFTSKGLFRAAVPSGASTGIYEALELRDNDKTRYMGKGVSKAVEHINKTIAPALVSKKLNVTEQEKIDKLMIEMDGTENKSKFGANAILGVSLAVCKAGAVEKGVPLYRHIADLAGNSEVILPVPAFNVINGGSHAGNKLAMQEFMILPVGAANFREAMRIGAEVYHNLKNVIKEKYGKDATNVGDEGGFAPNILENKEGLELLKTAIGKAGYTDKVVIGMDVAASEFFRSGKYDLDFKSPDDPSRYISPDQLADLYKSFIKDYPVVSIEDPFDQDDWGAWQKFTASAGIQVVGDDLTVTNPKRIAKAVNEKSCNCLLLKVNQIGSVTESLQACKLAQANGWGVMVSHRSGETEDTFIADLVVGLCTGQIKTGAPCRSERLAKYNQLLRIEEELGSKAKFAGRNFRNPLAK

As usually defined, the % inhibition is the relative decrease from the control value, in per cent. A low value points to a response near the control. As to IDR-0106963, the “% inhibition at 100 μM” value is > 90%.
